Experimental data as given in ChEMBL document CHEMBL1159246, “Further Structural Studies on the Petroformynes” (J Nat Prod, 1995).

Each molecule was assayed on Artemia salina (assay: Toxicity in Artemia salina after 24 hrs). Conditions: in vivo.
Assay type: organism-based

Row | SMILES | LD50 [ppm]
1 | C#CC(=O)/C=C/CC/C=C\CCCC/C=C\CCC#CC(O)C#C/C=C/CC/C=C\CCCCCCCCCCCCC/C=C/C(O)C#C (centres undefined) [PETROFORMYNE 8] | 0.77
2 | C#CC(=O)/C=C/CCCCCC/C=C\CCCCC#CC(O)C#C/C=C/CC/C=C\CCCCCCCCCCCCC/C=C/C(=O)C#C (centres undefined) | 0.18
3 | C#C/C=C\CCCCCCCCCCCCCC/C=C\CC/C=C\C#CC(O)C#CCCCC/C=C\CCCCCC/C=C/C(O)C#C (centres undefined) [ISOPETROFORMYNE 4] | 0.6
4 | C#CCCCCCCCCCCCCCCCC/C=C\CC/C=C\C#CC(O)C#CCCCC/C=C\CCCCCCCCC(O)C#C (centres undefined) | 6.8
5 | C#C/C=C\CCCCCCCCCCCCCC/C=C\CCCCC#CC(O)C#CCCCC/C=C\CCCCCC/C=C/C(=O)C#C (centres undefined) | 0.5
6 | C#CC(=O)/C=C/CC/C=C\CCCC/C=C\CCC#CC(O)C#C/C=C/CC/C=C\CCCCCCCCCCCCC/C=C/C(=O)C#C (centres undefined) | 5
7 | C#CCCCCCCCCCCCCCCCC/C=C\CC/C=C\C#CC(O)C#CCCCC/C=C\CCCCCC/C=C/C(O)C#C (centres undefined) [ISOPETROFORMYNE 3] | 0.26
8 | C#CCCCCCCCCCCCCCCCC/C=C\CCCCC#CC(=O)C#CCCCC/C=C\CCCCCC/C=C/C(O)C#C (centres undefined) | 6.3
9 | C#CCCCCCCCCCCCCCCCC/C=C\CC/C=C/C#CC(=O)C#CCCCC/C=C\CCCCCC/C=C/C(O)C#C (centres undefined) | 1
